Patent publication US20240360194A1, “New Peptides as Potent and Selective GIP Receptor Agonists” (Sanofi, priority 2021, published 2024)
Converted amounts (≈) assume the structure as drawn. Numbered stars: 1 amine (or outer) side, 2 acyl side, 3 side chain; on linkers, the order of the positions; unused ones are H or OH. Square brackets hold non-standard residues; d marks the D form. Side chains are listed from the residue outwards. Peptide text beside a SMILES is read from it. * marks the point of attachment. C18 diacid = O=C(O)CCCCCCCCCCCCCCCCC(=O)*; γGlu = O=C(O)[C@H](CCC(=O)[*:2])N[*:1]; dIva = CC[C@@](C)(N)C(=O)O; Abu = CC[C@H](N)C(=O)O; AEEA = NCCOCCOCC(=O)O; Aib = CC(C)(N)C(=O)O

How the values were obtained:
[1] = Solubility assessment (UHPLC-UV of supernatant, target 10 mg/ml); assay type: physicochemical; conditions: for Soluble amount: 24 h, pH 7.4
Protocol: Prior to the solubility measurement of a peptide batch, its purity was determined through UHPLC/MS.
Therefore, solutions from solid samples were prepared in a buffer system with a concentration of 10 mg/ml compound based on the previously determined % purity: • Solubility buffer system A) 100 mM phosphate buffer pH 7.4 • Solubility buffer system B) 8 mM phosphate buffer pH 7.4, 14 mg/ml propylene glycol, 5.5 mg/ml phenol • Solubility buffer system C) 100 mM phosphate buffer pH 7.4, 2.7 mg/ml m-cresol
UHPLC-UV was performed after 1 h of gentle agitation and storage at 5° C. overnight (24 h) from the supernatant, which was obtained after 15 min of centrifugation at 2500 RCF (relative centrifugal acceleration).
The different UV extinction coefficients of sample and reference peptide were calculated based on the different amino acid sequences and considered in the concentration calculation.
The analytical method used was Analytical UHPLC Method A.
Peptide samples were prepared in solubility buffer system A or C and solubility was assessed as described in Methods.

human GIP receptor = target: T1, human GIP receptor (Homo sapiens, UniProt P48546); assay: In vitro cellular cAMP assay for GIP receptor efficacy (human adipocytes); assay type: cell-based; conditions: for EC50: read-out: hGIPR EC50; for Emax: read-out: hGIPR Emax
T1 construct: human adipocytes endogenously expressing the human GIP receptor; host or cells: human preadipocytes (Lonza) differentiated to adipocytes
T1 sequence (P48546 22-466): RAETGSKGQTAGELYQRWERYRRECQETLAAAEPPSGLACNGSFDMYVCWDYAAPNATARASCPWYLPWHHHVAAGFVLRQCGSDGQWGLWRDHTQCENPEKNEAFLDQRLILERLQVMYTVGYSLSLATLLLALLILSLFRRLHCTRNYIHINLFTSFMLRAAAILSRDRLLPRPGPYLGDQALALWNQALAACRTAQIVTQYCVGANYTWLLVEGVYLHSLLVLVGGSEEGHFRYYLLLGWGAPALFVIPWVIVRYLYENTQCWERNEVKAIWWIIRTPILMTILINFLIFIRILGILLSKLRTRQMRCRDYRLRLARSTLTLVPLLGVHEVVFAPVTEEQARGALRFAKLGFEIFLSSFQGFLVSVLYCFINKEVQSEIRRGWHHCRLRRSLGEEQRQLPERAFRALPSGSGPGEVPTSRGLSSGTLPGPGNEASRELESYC
Protocol: For this, one vial of human preadipocytes (˜10^6 cells; Lonza) was thawed in a T-75 cell culture dish. The cells were cultivated at 37° C., 5% CO2, 95% humidity in Preadipocyte Growth Medium with Supplement Mix from Promo Cell.
After 3 days, the cells were washed with PBS and 1.5 ml Trypsin, incubated for 4 min, then resuspended in medium, centrifugated for 10 min @ 300 rcf RT, resuspended again and distributed to four T-75 cell culture dishes. Again, the cells were cultivated at 37° C., 5% CO2, 95% humidity.
After 5 days, the cells were washed with PBS and 1.5 ml Trypsin, incubated for 4 min, then resuspended in medium, centrifugated for 10 min @ 300 rcf RT, resuspended again and sawn in T-75 dishes (2.5×10^6 cells per dish) in 15 ml Differentiation medium each.
The differentiation medium had the following composition: DMEM (Gibco), Ham's F10 (Gibco), 15 mM HEPES (Gibco), 3% FCS (PAA), 33 μM biotin (Sigma-Aldrich), 17 μM Pantothenate (Sigma-Aldrich), 0.1 μM human insulin (Sigma-Aldrich), 1 μM dexamethason (Sigma-Aldrich), 0.1 μM PPARgamma agonist (#R2408, Sigma-Aldrich), 0.6×Anti-Anti (#15240, ThermoFisher), 200 μM IBMX (AppliChem), and 0.01 μM L-thyroxine (Sigma-Aldrich).
After 6 days of differentiation, 5000 cells per well were dispensed on a 96-well plate (#CLS3694 from Corning®, Sigma-Aldrich). For measurement of cAMP generation, 25 μL of test compound was added to each well of the 96-well plate, followed by incubation for 30 min at room temperature.
The cAMP generated following test compound stimulation was determined using a kit from Cisbio Corp. based on HTRF (Homogenous Time Resolved Fluorescence). The cAMP assay was performed according to manufacturer's instructions (Cisbio).
The cAMP content of cells was determined using a kit from Cisbio Corp. based on HTRF (Homogenous Time Resolved Fluorescence).
After addition of HTRF reagents diluted in lysis buffer (kit components), the plates were incubated for 1 h, followed by measurement of the fluorescence ratio at 665/620 nm.

[2] = target: T2, human GIP receptor (hGIPR) (Homo sapiens, UniProt P48546); assay: Binding assay, displacement of [125I]GIP from HEK-293 membranes over-expressing GIPR (SPA); conditions: [125I]GIP displacement
T2 sequence (P48546 22-466): T1 sequence (P48546 22-466)
Protocol: (1) Preparation of Membranes from HEK-293 Cells Over-Expressing GIPR or GLP-1R
HEK-293 cells recombinantly over-expressing GIPR or GLP-1R were grown to 50% confluency, washed with warm 1×PBS (Gibco) and detached in HEPES/EDTA-buffer (100 mM HEPES pH 7.5, 5 mM EDTA). Cells were harvested by centrifugation at 4° C. and 3000×g and the pellets were stored at −80° C. until further processing.
After thawing on ice, pellets were resuspended in HEPES/EDTA-buffer and homogenized on ice for 1 min using Ultra-Turray T25. After subsequent sonification the cell debris was removed by centrifugation at 1000×g and 4° C. Supernatants were then ultra-centrifuged at 100000×g and 4° C. under vacuum for 30 min. Pellets were resuspended in HEPES/EDTA/NaCl-buffer (20 mM HEPES, 1 mM EDTA, 150 mM NaCl; add 1 Complete Mini Protease inhibitor cocktail to 10 ml buffer) and protein content was determined via BCA-Protein assay.
(2) Measurement of Binding Activity of Test Compounds to Human GIPR or GLP-1R

[3] = target: human GLP-1 receptor (hGLP-1R) (Homo sapiens, UniProt P43220); assay: In vitro cellular cAMP assay for GLP-1 receptor efficacy (HEK-293 cell line over-expressing receptor); assay type: cell-based; conditions: HEK-293, 0.1% BSA
Chain of human GLP-1 receptor (hGLP-1R) (P43220 24-463): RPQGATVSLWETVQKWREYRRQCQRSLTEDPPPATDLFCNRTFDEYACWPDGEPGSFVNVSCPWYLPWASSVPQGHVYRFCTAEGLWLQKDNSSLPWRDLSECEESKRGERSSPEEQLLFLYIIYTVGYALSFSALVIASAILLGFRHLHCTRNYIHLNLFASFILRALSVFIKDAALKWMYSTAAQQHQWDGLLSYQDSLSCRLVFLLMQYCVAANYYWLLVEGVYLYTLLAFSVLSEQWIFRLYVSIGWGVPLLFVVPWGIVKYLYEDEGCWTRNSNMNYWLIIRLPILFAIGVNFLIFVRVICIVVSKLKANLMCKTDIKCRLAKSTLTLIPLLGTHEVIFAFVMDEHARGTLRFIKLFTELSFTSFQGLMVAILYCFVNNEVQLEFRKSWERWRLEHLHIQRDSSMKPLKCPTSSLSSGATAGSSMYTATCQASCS

| Compound | Soluble amount [1] [mg/mL] | solubility at 24 h ([1]; pH 7.4, Soluble amount) [µg/mL] | EC50 (human GIP receptor) [nM] | Emax (human GIP receptor) [%] | IC50 [2] [nM] | EC50 [3] [nM] | solubility ([1]; pH 7.4, Soluble amount) [µg/mL] |
| --- | --- | --- | --- | --- | --- | --- | --- |
| CC[C@H](C)[C@H](NC(=O)[C@H](Cc1ccccc1)NC(=O)[C@H](CCC(=O)O)NC(=O)[C@H](CCC(=O)O)NC(=O)[C@H](CCC(N)=O)NC(=O)[C@H](Cc1c[nH]cn1)NC(=O)[C@@H](NC(=O)[C@H](CCCNC(=N)N)NC(=O)[C@H](CC(=O)O)NC(=O)[C@H](CCCCNC(=O)COCCOCCNC(=O)COCCOCCNC(=O)CC[C@H](NC(=O)CCCCCCCCCCCCCCCCC(=O)O)C(=O)O)NC(=O)C(C)(C)NC(=O)[C@@H](NC(=O)[C@H](CO)NC(=O)[C@H](CC(C)C)NC(=O)[C@H](CC(=O)O)NC(=O)[C@H](CO)NC(=O)[C@@H](NC(=O)[C@H](Cc1ccccc1)NC(=O)[C@@H](NC(=O)CNC(=O)[C@H](CCC(=O)O)NC(=O)C(C)(C)NC(=O)[C@@H](N)Cc1ccc(O)cc1)[C@@H](C)O)[C@@H](C)CC)[C@@H](C)CC)[C@@H](C)CC)C(=O)N[C@@H](CCC(=O)O)C(=O)N[C@@H](Cc1c[nH]c2ccccc12)C(=O)N[C@@H](CC(C)C)C(=O)N[C@@H](CC(C)C)C(=O)N[C@@H](C)C(=O)N[C@@H](CCC(N)=O)C(=O)N[C@@H](CCC(=O)O)C(=O)N1CCC[C@H]1C(=O)N[C@@H](CO)C(=O)N[C@@H](CO)C(=O)NCC(=O)N[C@@H](C)C(=O)N1CCC[C@H]1C(=O)N1CCC[C@H]1C(=O)N1CCC[C@H]1C(=O)N[C@@H](CO)C(=O)O [SEQ ID NO: 28, H2N-Y-Aib-E-G-T-F-I-S-D-L-S-I-Aib-K[{AEEA}2-gGlu-C18OH]-DRIHQEEFIEWLLAQEPSSGAPPPS-OH] (H-Y[Aib]EGTFISDLSI[Aib]K([AEEA-AEEA-γGlu-C18 diacid])DRIHQEEFIEWLLAQEPSSGAPPPS-OH) | >9.0 | > 9400 | 0.5 | 103 | 0.8 | > 10 | – |
| CC[C@H](NC(=O)[C@@H](NC(=O)CNC(=O)[C@H](CCC(=O)O)NC(=O)C(C)(C)NC(=O)[C@@H](N)Cc1ccc(O)cc1)[C@@H](C)O)C(=O)N[C@H](C(=O)N[C@@H](CO)C(=O)N[C@@H](CC(=O)O)C(=O)N[C@@H](CC(C)C)C(=O)N[C@@H](CO)C(=O)N[C@H](C(=O)NC(C)(C)C(=O)N[C@@H](CCCCNC(=O)COCCOCCNC(=O)COCCOCCNC(=O)CC[C@H](NC(=O)CCCCCCCCCCCCCCCCC(=O)O)C(=O)O)C(=O)N[C@@H](CC(=O)O)C(=O)N[C@@H](CCCNC(=N)N)C(=O)N[C@H](C(=O)N[C@@H](Cc1c[nH]cn1)C(=O)N[C@@H](CCC(N)=O)C(=O)N[C@@H](CCC(=O)O)C(=O)N[C@@H](CCC(=O)O)C(=O)N[C@@H](Cc1ccccc1)C(=O)N[C@H](C(=O)N[C@@H](CCC(=O)O)C(=O)N[C@@H](Cc1c[nH]c2ccccc12)C(=O)N[C@@H](CC(C)C)C(=O)N[C@@H](CC(C)C)C(=O)N[C@@H](C)C(=O)N[C@@H](CCC(N)=O)C(=O)NCC(=O)N1CCC[C@H]1C(=O)N[C@@H](CO)C(=O)N[C@@H](CO)C(=O)NCC(=O)N[C@@H](C)C(=O)N1CCC[C@H]1C(=O)N1CCC[C@H]1C(=O)N1CCC[C@H]1C(=O)N[C@@H](CO)C(N)=O)[C@@H](C)CC)[C@@H](C)CC)[C@@H](C)CC)[C@@H](C)CC [SEQ ID NO: 25, H2N-Y-Aib-E-G-T-Abu-I-S-D-L-S-I-Aib-K[{AEEA}2-gGlu-C18OH]-DRIHQEEFIEWLLAQGPSSGAPPPS-NH2] (H-Y[Aib]EGT[Abu]ISDLSI[Aib]K([AEEA-AEEA-γGlu-C18 diacid])DRIHQEEFIEWLLAQGPSSGAPPPS-NH2) | >9.2 | > 8800 | 0.2 | 112 | 0.1 | > 10 | – |
| CC[C@H](C)[C@H](NC(=O)[C@H](CCCNC(=N)N)NC(=O)[C@H](CC(=O)O)NC(=O)[C@H](CCCCNC(=O)COCCOCCNC(=O)COCCOCCNC(=O)CC[C@H](NC(=O)CCCCCCCCCCCCCCCCC(=O)O)C(=O)O)NC(=O)C(C)(C)NC(=O)[C@@H](NC(=O)[C@H](CO)NC(=O)[C@H](CC(C)C)NC(=O)[C@H](CC(=O)O)NC(=O)[C@H](CO)NC(=O)[C@@H](NC(=O)[C@@](C)(CC)NC(=O)[C@@H](NC(=O)CNC(=O)[C@H](CCC(=O)O)NC(=O)C(C)(C)NC(=O)[C@@H](N)Cc1ccc(O)cc1)[C@@H](C)O)[C@@H](C)CC)[C@@H](C)CC)C(=O)N[C@@H](Cc1c[nH]cn1)C(=O)N[C@@H](CCC(N)=O)C(=O)NC(C)(C)C(=O)N[C@@H](CCC(=O)O)C(=O)N[C@@H](Cc1ccccc1)C(=O)N[C@H](C(=O)N[C@@H](CCC(=O)O)C(=O)N[C@@H](Cc1c[nH]c2ccccc12)C(=O)N[C@@H](CC(C)C)C(=O)N[C@@H](CC(C)C)C(=O)N[C@@H](C)C(=O)N[C@@H](CCC(N)=O)C(=O)NCC(=O)N1CCC[C@H]1C(=O)N[C@@H](CO)C(=O)N[C@@H](CO)C(=O)NCC(=O)N[C@@H](C)C(=O)N1CCC[C@H]1C(=O)N1CCC[C@H]1C(=O)N1CCC[C@H]1C(=O)N[C@@H](CO)C(N)=O)[C@@H](C)CC [SEQ ID NO: 23, H2N-Y-Aib-E-G-T-Iva-I-S-D-L-S-I-Aib-K[{AEEA}2-gGlu-C18OH]-D-R-I-H-Q-Aib-E-F-I-E-W-L-L-A-Q-G-P-S-S-G-A-P-P-P-S-NH2] (H-Y[Aib]EGT[dIva]ISDLSI[Aib]K([AEEA-AEEA-γGlu-C18 diacid])DRIHQ[Aib]EFIEWLLAQGPSSGAPPPS-NH2) | – | – | 0.2 | 91 | 0.2 | > 10 | 6500 (≈ 1320 µM) |
